Results from patent US7776844B2, “N-(phosphonoalkyl)-amino acids, derivatives thereof and compositions and methods of use” (priority 2006, dated 2010).
Like-named read-outs stand apart in the source and are kept apart here.

How the values were obtained:
chronic plaque psoriasis = test: Topical treatment of chronic plaque psoriasis lesion, clinical evaluation; type: in vivo; settings: Homo sapiens, read-out: improvement in contrast to untreated or vehicle control, clinical evaluation
Method: (§1) The present invention will now be described in more detail with reference to the following non-limiting examples. In the initial tests for comparative studies, a control vehicle was always included. It was discovered that all the vehicle controls gave the same results as that of the untreated skin sites; no detectable effects of the controls have been found as judged by clinical evaluation.
(§2) For subjective disorders such as pain, itch or the like, the therapeutic effects were evaluated or judged by the subjects or patients; for example, if the pain or itch had disappeared within hours or days. For other detectable symptoms or syndromes, the therapeutic effects or improvements were evaluated or judged by medical professionals.
(§3) A subject had chronic plaque psoriasis with erythema, moderately thick and silvery scales. The subject topically applied twice daily the above white cream containing 5% N-(phosphonomethyl)-glycine ethyl ester to one psoriatic lesion for two weeks. At the end of two weeks, the erythema and silvery scales improved substantially, and the treated skin had 50% improvement in contrast to the untreated or vehicle control as judged by clinical evaluation.
as §3, with “10% N-(phosphonomethyl)-L-proline” for “5% N-(phosphonomethyl)-glycine ethyl ester”, “improved very” for “improved”, “75%” for “50%”
as §3, with “N-(phosphonomethyl)-glycine propyl” for “N-(phosphonomethyl)-glycine ethyl”, “improved very” for “improved”, “had 75%” for “had 50%”
as §3, with “N-(phosphonomethyl)-glycine isopropyl” for “N-(phosphonomethyl)-glycine ethyl”, “for a week.” for “for two weeks.”, “of one week,” for “of two weeks,”
as §3, with “8% N-(phosphonomethyl)-glycinamide” for “5% N-(phosphonomethyl)-glycine ethyl ester”, “three” for “two”, “disappeared almost completely,” for “improved substantially,”, “90%” for “50%”
as §3, with “N-(phosphonomethyl)-L-tyrosine” for “N-(phosphonomethyl)-glycine”, “noticeably” for “substantially,”, “25%” for “50%”
A subject had chronic plaque psoriasis with erythema, moderately thick and silvery scales. The subject topically applied twice daily the above white cream containing 10% N-(phosphonomethyl)-D-4-hydroxyphenylglycine to one psoriatic lesion for two weeks. […]

[1] = tested on: X-linked ichthyosis with severe dry skin; test: Topical treatment of X-linked ichthyosis / severe dry skin, clinical evaluation; type: in vivo; settings: Homo sapiens, read-out: improvement in contrast to untreated or vehicle control, clinical evaluation
From the text: For example, human subjects having severe dry skin or ichthyosis, topically applied 1%-5% N-(phosphonomethyl)-glycine creams to lesions for 2 to 3 weeks. After 2 to 3 weeks of topical application, the thick and scaly skin disappeared and the skin became smooth and normal in appearance. Clinical evaluation was judged to be 90% to 100% improvement compared to the untreated condition or when using a vehicle control.
as §1, §2
N-(phosphonomethyl)-glycine (5 g) was suspended in water (30 ml) and propylene glycol (10 ml), and concentrated ammonium hydroxide (2 ml) was added with stirring. The suspension became a clear solution, and was mixed with hydrophilic ointment (oil-in-water emulsion, 53 g). The white cream thus formulated had pH 3.8 and contained 5% N-(phosphonomethyl)-glycine. A subject who had X-linked ichthyosis with severe dry skin, having thick and rough skin with adherent scales, topically applied the above 5% N-(phosphonomethyl)-glycine cream to an involved skin site twice daily for two weeks. After one week of topical application, the adherent scales disappeared, and the skin became smooth and had 50% improvement in contrast to the untreated or vehicle control as judged by clinical evaluation. After two weeks of topical application, the treated skin became normal in appearance, and had 100% improvement in contrast to the untreated or vehicle control as judged by clinical evaluation.
A subject who had X-linked ichthyosis with severe dry skin, having thick and rough skin with adherent scales, topically applied the above 5% N-(phosphonomethyl)imino-diacetic acid cream to an involved skin site twice daily for two weeks. After one week of topical application, most adherent scales disappeared and the skin had 50% improvement in contrast to the untreated or vehicle control as judged by clinical evaluation. After two weeks of topical application, the scales disappeared completely and the treated skin became smooth, and had 90% improvement in contrast to the untreated or vehicle control as judged by clinical evaluation.
A subject who had X-linked ichthyosis with severe dry skin, having thick and rough skin with adherent scales, topically applied the above 5% N-(phosphonomethyl)-L-tyrosine cream to an involved skin site twice daily for 12 days. After 12 days of topical application, most adherent scales disappeared and the skin became smooth, and had 75% improvement in contrast to the untreated or vehicle control as judged by clinical evaluation.
A subject who had X-linked ichthyosis having thick and rough skin with adherent scales, topically applied the 5% N-(phosphonomethyl)-DL-asparagine cream to an involved skin site twice daily for three weeks. After one week of topical application, most adherent scales disappeared and the treated site appeared smooth. The skin had 75% improvement in contrast to the untreated or vehicle control as judged by clinical evaluation. After three weeks of topical application, the scales disappeared completely and the treated site felt smooth and normal in appearance. The skin had 100% improvement in contrast to the untreated or vehicle control as judged by clinical evaluation. […]

hyperpigmented dark skin = test: Topical skin lightening of hyperpigmented dark skin, clinical evaluation; type: in vivo, human
Method: as §1, §2
A subject who had hyperpigmented dark skin, topically applied 5% N-(phosphonomethyl)-DL-asparagine cream prepared according to Example 7 to an involved skin site twice daily for four weeks. […] The treated site was 25% lighter in skin color in contrast to the untreated or vehicle control as judged by clinical evaluation. After four weeks of topical application, the treated site had substantial reduction in skin pigmentation. The treated site was 50% lighter in contrast to the untreated or vehicle control in skin color as judged by clinical evaluation.
A subject who had hyperpigmented dark skin, topically applied the above 5% N-(phosphonomethyl)-DL-asparagine solution to an involved skin site once every other day with occlusion for ten days. […] The treated site was 25% lighter in skin color as judged by clinical evaluation. After ten days of topical application, the treated site had substantial reduction in skin pigmentation. The treated site was 50% lighter in skin color in contrast to the untreated or vehicle control as judged by clinical evaluation.
(§4) A subject who had hyperpigmented dark skin, topically applied the above 5% N-(phosphonomethyl)-creatine solution to an involved skin site once every other day with occlusion for two weeks. […] The treated site was 25% lighter in skin color in contrast to the untreated or vehicle control as judged by clinical evaluation. After two weeks of topical application, the treated site had very substantial reduction in skin pigmentation. The treated site was 75% lighter in skin color in contrast to the untreated or vehicle control as judged by clinical evaluation.
as §4, with “N-(phosphonomethyl)-glycinamide” for “N-(phosphonomethyl)-creatine”, “had” for “had very”, “50%” for “75%”
A subject who had hyperpigmented dark skin, topically applied the above 5% N-(phosphonomethyl)-L-glutamine solution to an involved skin site once every other day with occlusion for two weeks. After two weeks of topical application, the treated site had substantial reduction in skin pigmentation. The treated site had 50% lighter in skin color in contrast to the untreated or vehicle control as judged by clinical evaluation.

itchy eczema = test: Topical relief of itch in itchy eczema, judged by subject; type: in vivo, human; settings: for therapeutic evaluation, effective for immediate relief of itch: single topical application
Method: as §1, §2
A subject, having itchy eczema on their right thigh, topically applied the above 8% N-(phosphonomethyl)-L-proline ethyl ester cream. […] Therapeutic evaluation was judged to be 100% effective in contrast to the untreated or vehicle control for immediate relief of itch.
A subject, having itchy eczema on their left leg, topically applied 7% N-(phosphonomethyl)-creatine cream prepared according to Example 17. […] Therapeutic evaluation was judged to be 100% effective in contrast to the untreated or vehicle control for immediate relief of itch.
A subject, having itchy eczema on their left thigh, topically applied the above 10% N-(phosphonomethyl)-glutamine. […] Therapeutic evaluation was judged to be 100% effective in contrast to the untreated or vehicle control for immediate relief of itch.

[2] = 336 h, 5% cream twice daily, end of two weeks
[3] = 5% solution once every other day with occlusion, after seven days
[4] = 5% solution once every other day with occlusion, after two weeks
[5] = 168 h, 5% cream twice daily, after one week

`O=P(O)(O)CNCCc1ccc(O)cc1` [N-(phosphonomethyl)-tyramine] gave an inhibition in vivo at 5 % (chronic plaque psoriasis; [2]) of 50% and an inhibition in vivo at 5 % ([1]; 168 h, 5% solution once every other day under occlusion, after one week) of 75%.
With `NC(=O)CC(NCP(=O)(O)O)C(=O)O` (racemic) [N-(phosphonomethyl)-DL-asparagine] the “treated site lighter in skin color, clinical evaluation” value (“treated site lighter in skin color” for short) (hyperpigmented dark skin; 5% cream twice daily, after four weeks) was 50%, the “treated site lighter in skin color” value (hyperpigmented dark skin; 5% cream twice daily, after two weeks) was 25% and the “treated site lighter in skin color” value (hyperpigmented dark skin; [3]) was 25%. The “treated site lighter in skin color” value (hyperpigmented dark skin; 5% solution once every other day with occlusion, after ten days) was 50%, the inhibition in vivo at 5 % ([1]; 168 h) was 75% and the inhibition in vivo at 5 % ([1]; 504 h) was 100%.
For `O=C(O)[C@H](NCP(=O)(O)O)c1ccc(O)cc1` [N-(phosphonomethyl)-D-4-hydroxyphenylglycine], the inhibition in vivo at 10 % (chronic plaque psoriasis; 336 h, 10% cream twice daily, end of two weeks) was 70%.
`CCOC(=O)CNCP(=O)(O)O` [N-(phosphonomethyl)-glycine ethyl ester] showed an inhibition in vivo at 5 % (chronic plaque psoriasis; 336 h) of 50%.
With `CN(CC(=O)O)C(=N)NCP(=O)(O)O` [N-(phosphonomethyl)-creatine] the inhibition in vivo at 5 % (chronic plaque psoriasis; 336 h) was 50%, the “treated site lighter in skin color” value (hyperpigmented dark skin; [3]) was 25% and the “treated site lighter in skin color” value (hyperpigmented dark skin; [4]) was 75%. The inhibition in vivo at 5 % ([1]; 240 h) was 50%, the inhibition in vivo at 5 % ([1]; 336 h) was 100% and the “time the treated skin did not itch after application” value (“time the treated skin did not itch” for short) (itchy eczema; 7% cream) was 8 h. The “time until itch disappeared after topical application” value (shortened to “time until itch disappeared”) (itchy eczema; 7% cream) was “within a few minutes” and the “therapeutic evaluation, effective for immediate relief of itch” value (“therapeutic evaluation, effective” for short) (itchy eczema; 7% cream) was 100%.
`CC(C)OC(=O)CNCP(=O)(O)O` [N-(phosphonomethyl)-glycine isopropyl ester] showed an inhibition in vivo at 5 % (chronic plaque psoriasis; 168 h) of 50%.
With `CCOC(=O)[C@H](Cc1ccc(O)cc1)NCP(=O)(O)O` [N-(phosphonomethyl)-L-tyrosine ethyl ester] the inhibition in vivo at 5 % (chronic plaque psoriasis; [2]) was 25% and the inhibition in vivo at 5 % [1, 5] was 25%.
Molecule `O=C(O)CNCP(=O)(O)O` [N-(phosphonomethyl)-glycine] has an inhibition in vivo at 5 % [1, 5] of 50% and an inhibition in vivo at 5 % ([1]; 336 h, 5% cream twice daily, after two weeks) of 100%.
Work on `O=C(O)[C@H](Cc1ccc(O)cc1)NCP(=O)(O)O` [N-(phosphonomethyl)-L-tyrosine] yielded an inhibition in vivo at 5 % ([1]; 288 h, 5% cream twice daily, after 12 days) of 75%.
`NCC(=O)NCP(=O)(O)O` [N-(phosphonomethyl)-glycinamide] was tested, and the inhibition in vivo at 8 % (chronic plaque psoriasis; 504 h) was 90%, the “treated site lighter in skin color” value (hyperpigmented dark skin; [3]) was 25% and the “treated site lighter in skin color” value (hyperpigmented dark skin; [4]) was 50%. It also gave an inhibition in vivo at 5 % ([1]; 168 h) of 75% and an inhibition in vivo at 5 % ([1]; 504 h) of 100%.
`O=C(O)CN(CC(=O)O)CP(=O)(O)O` [N-(phosphonomethyl)imino-diacetic acid] showed an inhibition in vivo at 5 % ([1]; 168 h) of 50% and an inhibition in vivo at 5 % ([1]; 336 h) of 90%.
`O=C(O)CC[C@H](NCP(=O)(O)O)C(=O)O` [N-(phosphonomethyl)-L-glutamic acid] gave an inhibition in vivo at 8 % (chronic plaque psoriasis; 336 h, 8% cream twice daily, end of two weeks) of 50%.
With `CCOC(=O)[C@@H]1CCCN1CP(=O)(O)O` [N-(phosphonomethyl)-L-proline ethyl ester] the “time the treated skin did not itch” value (itchy eczema; 8% cream) was 8 h, the “time until itch disappeared” value (itchy eczema; 8% cream) was “within a few minutes” and the “therapeutic evaluation, effective” value (itchy eczema; 8% cream) was 100%.
With `CCCOC(=O)CNCP(=O)(O)O` [N-(phosphonomethyl)-glycine propyl ester] the inhibition in vivo at 5 % (chronic plaque psoriasis; 336 h) was 75%.
In the case of `O=C(O)[C@@H]1CCCN1CP(=O)(O)O` [N-(phosphonomethyl)-L-proline], the inhibition in vivo at 10 % (chronic plaque psoriasis; 336 h) is reported as 75%.
For `NC(=O)CC[C@H](NCP(=O)(O)O)C(=O)O` [N-(phosphonomethyl)-L-glutamine], the “treated site lighter in skin color” value (hyperpigmented dark skin; [4]) was 50%, the inhibition in vivo at 5 % ([1]; 336 h, 5% solution once every other day (occlusion not stated), after two weeks) was 75% and the inhibition in vivo at 5 % ([1]; 504 h, 5% solution once every other day (occlusion not stated), after three weeks) was 100%. For the same molecule, the “time the treated skin did not itch” value (itchy eczema; 10% cream) was 8 h, the “time until itch disappeared” value (itchy eczema; 10% cream) was “within a few minutes” and the “therapeutic evaluation, effective” value (itchy eczema; 10% cream) was 100%.
